According to patent US9987256B2, “CFTR corrector for the treatment of genetic disorders affecting striated muscle” (UNIVERSITA' DEGLI STUDI DI PADOVA, priority 2012, dated 2018):

Molecular target: T1, V247M mutant of alpha-sarcoglycan (Homo sapiens, UniProt Q16586, V247M)
T1 construct: expressed in transfected cells; host or cells: HEK 293
T1 sequence (Q16586 24-387 V247M): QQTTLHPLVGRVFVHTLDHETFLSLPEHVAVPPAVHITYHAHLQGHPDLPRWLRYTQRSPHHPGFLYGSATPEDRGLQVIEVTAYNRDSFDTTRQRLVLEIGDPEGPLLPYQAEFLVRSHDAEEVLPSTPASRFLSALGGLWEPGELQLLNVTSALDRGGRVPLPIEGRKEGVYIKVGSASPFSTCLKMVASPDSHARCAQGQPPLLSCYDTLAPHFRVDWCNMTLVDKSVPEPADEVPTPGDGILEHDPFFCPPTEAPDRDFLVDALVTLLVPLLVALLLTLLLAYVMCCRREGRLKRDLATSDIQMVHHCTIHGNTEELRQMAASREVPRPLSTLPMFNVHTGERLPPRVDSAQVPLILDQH
Experiment: Confocal immunofluorescence, membrane localization of V247M alpha-sarcoglycan in HEK293 cells
Assay type: cell-based
Conditions: FIG. 2; HEK293, 24 hours; E 10 μM, D 10 μM, MG132 positive control; not permeabilized cells
Experimental: The cellular localization of either the V247M or R98H mutants, upon corrector treatments, has been verified by confocal immunofluorescence.
In the experiment reported in FIG. 2, HEK 293 cells expressing the V247M mutant have been treated for 24 hours with either Compound E (10 μM) or Compound D (10 μM), MG132 (positive control) or DMSO at 1‰ concentration (negative control). At the end of treatments, not permeabilized cells were incubated with a monoclonal antibody specific for an extracellular epitope of α-sarcoglycan in order to mark only the membrane resident α-sarcoglycan. By comparison, cells expressing the wild type form of α-sarcoglycan have also been used.

`COc1ccc(Cl)cc1Nc1nc(-c2sc(NC(=O)c3ccccc3)nc2C)cs1` [Compound E, N-[2-(5-Chloro-2-methoxy-phenylamino)-4′-methyl-[4,5′]bithiazolyl-2′-yl]-benzamide] was tested, and the “plasma membrane localization of V247M alpha-sarcoglycan mutant” value was “promoted the correct plasma membrane localization”.
